# Measured values: patent US20240158408A1, “Nitrogen-Containing Heterocyclic Compound, Pharmaceutical Compositions thereof and Use thereof” (280 Bio, Inc., priority 2022, published 2024)
# Molecular target: PI3Kα (Homo sapiens (Human), UniProt P42336)
# Experiment: ADP-Glo Kinase Assay, PI3Kα enzyme activity inhibition
# Settings: ADP-Glo; ATP 25 μM; PIP2 50 μg/mL; 1 hour at room temperature
# Sequence of PI3Kα (P42336 whole entry): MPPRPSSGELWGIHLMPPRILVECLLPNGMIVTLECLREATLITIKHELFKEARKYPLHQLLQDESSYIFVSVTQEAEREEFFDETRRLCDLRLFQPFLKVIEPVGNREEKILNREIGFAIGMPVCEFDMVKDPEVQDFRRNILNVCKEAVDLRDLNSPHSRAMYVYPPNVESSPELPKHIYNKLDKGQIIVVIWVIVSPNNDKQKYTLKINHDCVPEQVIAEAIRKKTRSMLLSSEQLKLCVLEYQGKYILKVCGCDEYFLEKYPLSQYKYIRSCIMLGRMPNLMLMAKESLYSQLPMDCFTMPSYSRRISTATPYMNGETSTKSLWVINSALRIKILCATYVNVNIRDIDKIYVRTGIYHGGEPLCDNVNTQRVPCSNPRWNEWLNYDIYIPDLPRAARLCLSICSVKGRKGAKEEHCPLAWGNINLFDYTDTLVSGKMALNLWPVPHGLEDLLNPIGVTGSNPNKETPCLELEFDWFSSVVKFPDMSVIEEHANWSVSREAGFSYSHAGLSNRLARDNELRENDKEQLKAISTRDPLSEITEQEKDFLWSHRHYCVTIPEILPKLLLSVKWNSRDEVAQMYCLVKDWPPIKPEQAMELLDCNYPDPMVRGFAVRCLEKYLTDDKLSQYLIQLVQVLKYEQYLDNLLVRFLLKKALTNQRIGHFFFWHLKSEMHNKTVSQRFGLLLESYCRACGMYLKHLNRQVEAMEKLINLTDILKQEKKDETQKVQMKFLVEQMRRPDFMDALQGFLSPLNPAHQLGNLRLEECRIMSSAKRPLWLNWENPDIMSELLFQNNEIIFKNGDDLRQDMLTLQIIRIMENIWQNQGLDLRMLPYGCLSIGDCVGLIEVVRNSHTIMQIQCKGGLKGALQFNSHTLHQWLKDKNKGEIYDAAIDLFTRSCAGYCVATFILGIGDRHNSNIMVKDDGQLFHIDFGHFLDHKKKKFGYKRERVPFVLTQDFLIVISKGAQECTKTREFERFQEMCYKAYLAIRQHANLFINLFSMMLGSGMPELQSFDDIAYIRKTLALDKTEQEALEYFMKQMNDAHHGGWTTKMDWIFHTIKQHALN
# Sequence of PI3Kα (P27986 whole entry partner): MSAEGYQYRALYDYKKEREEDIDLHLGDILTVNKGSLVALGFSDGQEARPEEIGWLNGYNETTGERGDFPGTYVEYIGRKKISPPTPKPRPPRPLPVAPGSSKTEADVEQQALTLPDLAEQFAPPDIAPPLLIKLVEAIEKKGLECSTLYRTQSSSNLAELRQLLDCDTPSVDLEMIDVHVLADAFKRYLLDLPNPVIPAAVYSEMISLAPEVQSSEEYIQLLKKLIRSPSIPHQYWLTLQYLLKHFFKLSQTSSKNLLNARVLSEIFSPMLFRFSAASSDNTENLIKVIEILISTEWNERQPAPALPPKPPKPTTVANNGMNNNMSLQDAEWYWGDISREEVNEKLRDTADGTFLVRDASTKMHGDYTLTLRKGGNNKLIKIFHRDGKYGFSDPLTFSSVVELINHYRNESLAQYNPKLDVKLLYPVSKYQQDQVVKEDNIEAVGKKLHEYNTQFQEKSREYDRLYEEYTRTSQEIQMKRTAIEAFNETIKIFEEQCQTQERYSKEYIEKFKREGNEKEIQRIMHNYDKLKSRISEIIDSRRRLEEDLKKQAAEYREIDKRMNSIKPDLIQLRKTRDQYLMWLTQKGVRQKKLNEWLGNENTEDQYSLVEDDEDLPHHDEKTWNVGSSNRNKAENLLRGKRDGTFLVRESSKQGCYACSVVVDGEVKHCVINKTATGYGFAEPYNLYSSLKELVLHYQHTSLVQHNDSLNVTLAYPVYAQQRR
row,PI3Kaα IC50,Compound
1,+++ (+++ represents IC50>10 μM),C#Cc1cc(NC(=O)c2cc(F)cc(C(F)(F)F)c2)c2c3c1CCN3C(=O)NC2c1cc(F)ccc1Cl (centres unmarked) [YL069]
2,++ (++ represents 250 nM<IC50<=10 μM),Nc1cc(-c2cc(NC(=O)c3cc(F)cc(C(F)(F)F)c3)c3c4c2CCN4C(=O)NC3c2cc(F)ccc2Cl)[nH]n1 (centres unmarked) [YL053]
3,++ (++ represents 250 nM<IC50<=10 μM),O=C(Nc1cc(-c2cnoc2)c2c3c1C(c1cc(F)ccc1Cl)NC(=O)N3CC2)c1cc(F)cc(C(F)(F)F)c1 (centres unmarked) [YL018]
4,+++ (+++ represents IC50>10 μM),Cc1cc(-c2cc(NC(=O)c3cc(F)cc(C(F)(F)F)c3)c3c4c2CCN4C(=O)NC3c2cc(F)ccc2Cl)n[nH]1 (centres unmarked) [YL070]
5,++ (++ represents 250 nM<IC50<=10 μM),Cc1n[nH]c(C(F)(F)F)c1-c1cc(NC(=O)c2cc(F)cc(C(F)(F)F)c2)c2c3c1CCN3C(=O)NC2c1cc(F)ccc1Cl (centres unmarked) [YL072]
6,+++ (+++ represents IC50>10 μM),N#Cc1nc(F)ncc1-c1cc(NC(=O)c2cc(F)cc(C(F)(F)F)c2)c2c3c1CCN3C(=O)NC2c1cc(F)ccc1Cl (centres unmarked) [YL143]
7,+++ (+++ represents IC50>10 μM),O=C(Nc1cc(-c2c(C(F)(F)F)n[nH]c2-c2ccccc2)c2c3c1C(c1cc(F)ccc1Cl)NC(=O)N3CC2)c1cc(F)cc(C(F)(F)F)c1 (centres unmarked) [YL049]
8,++ (++ represents 250 nM<IC50<=10 μM),O=C(Nc1cc(-c2c[nH]c3ncc(C(F)(F)F)cc23)c2c3c1C(c1cc(F)ccc1Cl)NC(=O)N3CC2)c1cc(F)cc(C(F)(F)F)c1 (centres unmarked) [YL036]
9,++ (++ represents 250 nM<IC50<=10 μM),O=C(Nc1cc(B(O)O)c2c3c1C(c1cc(F)ccc1Cl)NC(=O)N3CC2)c1cc(F)cc(C(F)(F)F)c1 (centres unmarked) [YL019]
10,+++ (+++ represents IC50>10 μM),N#Cc1ccc(-c2cc(NC(=O)c3cc(F)cc(C(F)(F)F)c3)c3c4c2CCN4C(=O)NC3c2cc(F)ccc2Cl)c(N)n1 (centres unmarked) [YL134]
11,++ (++ represents 250 nM<IC50<=10 μM),O=C(Nc1cc(-c2ccn[nH]2)c2c3c1C(c1cc(F)ccc1Cl)NC(=O)N3CC2)c1cc(F)cc(C(F)(F)F)c1 (centres unmarked) [YL054]
12,+++ (+++ represents IC50>10 μM),N#Cc1nc(N)ncc1-c1cc(NC(=O)c2cc(F)cc(C(F)(F)F)c2)c2c3c1CCN3C(=O)NC2c1cc(F)ccc1Cl (centres unmarked) [YL137]
13,++ (++ represents 250 nM<IC50<=10 μM),O=C(Nc1cc(-c2cn[nH]c2C(F)(F)F)c2c3c1C(c1cc(F)ccc1Cl)NC(=O)N3CC2)c1cc(F)cc(C(F)(F)F)c1 (centres unmarked) [YL071]
14,+++ (+++ represents IC50>10 μM),O=C(Nc1cc(-c2cnc3[nH]cnc3c2Cl)c2c3c1C(c1cc(F)ccc1Cl)NC(=O)N3CC2)c1cc(F)cc(C(F)(F)F)c1 (centres unmarked) [YL147]
15,++ (++ represents 250 nM<IC50<=10 μM),Cn1nc(C(F)(F)F)cc1-c1cc(NC(=O)c2cc(F)cc(C(F)(F)F)c2)c2c3c1CCN3C(=O)NC2c1cc(F)ccc1Cl (centres unmarked) [YL014]
16,++ (++ represents 250 nM<IC50<=10 μM),O=C(Nc1cc(-c2c(C(F)(F)F)n[nH]c2C2CC2)c2c3c1C(c1cc(F)ccc1Cl)NC(=O)N3CC2)c1cc(F)cc(C(F)(F)F)c1 (centres unmarked) [YL048]
17,+++ (+++ represents IC50>10 μM),N#Cc1n[nH]cc1-c1cc(NC(=O)c2cc(F)cc(C(F)(F)F)c2)c2c3c1CCN3C(=O)NC2c1cc(F)ccc1Cl (centres unmarked) [YL126]
18,+++ (+++ represents IC50>10 μM),N#Cc1ncncc1-c1cc(NC(=O)c2cc(F)cc(C(F)(F)F)c2)c2c3c1CCN3C(=O)NC2c1cc(F)ccc1Cl (centres unmarked) [YL141]
19,++ (++ represents 250 nM<IC50<=10 μM),Cn1cc(-c2cc(NC(=O)c3cc(F)cc(C(F)(F)F)c3)c3c4c2CCN4C(=O)NC3c2cc(F)ccc2Cl)cn1 (centres unmarked) [YL015]
20,++ (++ represents 250 nM<IC50<=10 μM),O=C(Nc1cc(F)c2c3c1C(c1cc(F)ccc1Cl)NC(=O)N3CC2)c1cc(F)cc(C(F)(F)F)c1 (centres unmarked) [YL021]

# More lines, now with the values behind:
row,Compound,PI3Kaα IC50
1,N#Cc1ccc(-c2cc(NC(=O)c3cc(F)cc(C(F)(F)F)c3)c3c4c2CCN4C(=O)NC3c2cc(Cl)ccc2Cl)c(N)n1 (centres unmarked) [YL130],+++ (+++ represents IC50>10 μM)
2,O=C(Nc1cc(-c2nn(Cc3ccccc3)cc2F)c2c3c1C(c1cc(F)ccc1Cl)NC(=O)N3CC2)c1cc(F)cc(C(F)(F)F)c1 (centres unmarked) [YL061],+++ (+++ represents IC50>10 μM)
3,Cc1ccccc1C1NC(=O)c2cccc3ccc(NC(=O)c4csc5ccccc45)c1c23 (centres unmarked) [YL004],+++ (+++ represents IC50>10 μM)
4,N#Cc1cc(N)ccc1-c1cc(NC(=O)c2cc(F)cc(C(F)(F)F)c2)c2c3c1CCN3C(=O)NC2c1cc(F)ccc1Cl (centres unmarked) [YL150],++ (++ represents 250 nM<IC50<=10 μM)
5,O=C(Nc1cc(NC2CC2)c2c3c1C(c1cc(F)ccc1Cl)NC(=O)N3CC2)c1cc(F)cc(C(F)(F)F)c1 (centres unmarked) [YL022],++ (++ represents 250 nM<IC50<=10 μM)
6,N#Cc1cc2ncnn2cc1-c1cc(NC(=O)c2cc(F)cc(C(F)(F)F)c2)c2c3c1CCN3C(=O)NC2c1cc(F)ccc1Cl (centres unmarked) [YL153],+++ (+++ represents IC50>10 μM)
7,N#Cc1c(N)cccc1-c1cc(NC(=O)c2cc(F)cc(C(F)(F)F)c2)c2c3c1CCN3C(=O)NC2c1cc(Cl)ccc1Cl (centres unmarked) [YL132],+++ (+++ represents IC50>10 μM)
8,C[C@@H](O)C(=O)Nc1cc(NC(=O)c2cc(F)cc(C(F)(F)F)c2)c2c3c1CCN3C(=O)NC2c1cc(F)ccc1Cl (some centres unmarked) [YL031],+++ (+++ represents IC50>10 μM)
9,C#Cc1c(-c2cc(NC(=O)c3cc(F)cc(C(F)(F)F)c3)c3c4c2CCN4C(=O)NC3c2cc(F)ccc2Cl)ccc2ncnn12 (centres unmarked) [YL140],+++ (+++ represents IC50>10 μM)
10,O=C(Nc1cc(Br)c2c3c1C(c1ccccc1Cl)NC(=O)N3CC2)c1cc(F)cc(C(F)(F)F)c1 (centres unmarked) [YL066],+++ (+++ represents IC50>10 μM)
11,O=C(Nc1cc(Br)c2c3c1C(c1cccc(F)c1)NC(=O)N3CC2)c1cc(F)cc(C(F)(F)F)c1 (centres unmarked) [YL062],+++ (+++ represents IC50>10 μM)
12,O=C1NC(c2cc(F)ccc2Cl)c2c(Nc3nccc4c(C(F)(F)F)cc(F)cc34)cc(F)c3c2N1CC3 (centres unmarked) [YL045],+++ (+++ represents IC50>10 μM)
13,O=C1NC(c2cc(F)ccc2Cl)c2c(-c3nc4c(F)cc(C(F)(F)F)cc4[nH]3)ccc3c2N1CC3 (centres unmarked) [YL032],++ (++ represents 250 nM<IC50<=10 μM)
14,COc1c(-c2cc(NC(=O)c3cc(F)cc(C(F)(F)F)c3)c3c4c2CCN4C(=O)NC3c2cc(F)ccc2Cl)ccc2ncnn12 (centres unmarked) [YL146],+++ (+++ represents IC50>10 μM)
15,O=C(Nc1cc(F)cc(C(F)(F)F)c1)Nc1cc(Br)c2c3c1C(c1cc(F)ccc1Cl)NC(=O)N3CC2 (centres unmarked) [YL122],+++ (+++ represents IC50>10 μM)
16,Cn1nc2c(-c3cn[nH]c3F)cc(NC(=O)c3cc(F)cc(C(F)(F)F)c3)c3c2c1C(=O)NC3c1cc(F)ccc1Cl (centres unmarked) [YL113],+++ (+++ represents IC50>10 μM)
17,O=C(Nc1cc(NC2COC2)c2c3c1C(c1cc(F)ccc1Cl)NC(=O)N3CC2)c1cc(F)cc(C(F)(F)F)c1 (centres unmarked) [YL027],++ (++ represents 250 nM<IC50<=10 μM)
18,O=C1NC(c2cc(F)ccc2Cl)c2c(Nc3nccc4c(C(F)(F)F)cc(F)cc34)ccc3c2N1CC3 (centres unmarked) [YL050],++ (++ represents 250 nM<IC50<=10 μM)
19,Nc1cc(-c2cc(Nc3nccc4c(C(F)(F)F)cc(F)cc34)c3c4c2CCN4C(=O)NC3c2cc(F)ccc2Cl)n[nH]1 (centres unmarked) [YL044],++ (++ represents 250 nM<IC50<=10 μM)
20,O=C(Nc1cc(N2CC(F)(F)C2)c2c3c1C(c1cc(F)ccc1Cl)NC(=O)N3CC2)c1cc(F)cc(C(F)(F)F)c1 (centres unmarked) [YL012],++ (++ represents 250 nM<IC50<=10 μM)
21,N#Cc1c(N)cccc1-c1cc(NC(=O)c2cc(F)cc(C(F)(F)F)c2)c2c3c1CCN3C(=O)NC2c1cc(F)ccc1Cl (centres unmarked) [YL133],+++ (+++ represents IC50>10 μM)
22,O=C(Nc1cc(-c2ccc3ncnn3c2)c2c3c1C(c1cc(F)ccc1Cl)NC(=O)N3CC2)c1cc(F)cc(C(F)(F)F)c1 (centres unmarked) [YL128],+++ (+++ represents IC50>10 μM)
23,O=C(Nc1cc(Br)c2c3c1C(c1cc(F)ccc1Br)NC(=O)N3CC2)c1cc(F)cc(C(F)(F)F)c1 (centres unmarked) [YL063],++ (++ represents 250 nM<IC50<=10 μM)

# Same assay, conditions: PI3Kaα IC50, ADP-Glo; ATP 25 μM; PIP2 50 μg/mL; 1 hour at room temperature
row,IC50 [µM],Compound
1,0.25 to 10,Nc1n[nH]cc1-c1cc(NC(=O)c2cc(F)cc(C(F)(F)F)c2)c2c3c1CCN3C(=O)NC2c1cc(F)ccc1Cl (centres unmarked) [YL073]
2,> 10,"O=C(Nc1cc(Br)c2c3c1C(c1cc(F)ccc1Cl)NC(=O)N3CC2)c1cc(F)cc(C(F)(F)F)c1 (single isomer, unassigned) [YL079-P1]"
3,0.25 to 10,O=C(Nc1cc(-c2c[nH]cn2)c2c3c1C(c1cc(F)ccc1Cl)NC(=O)N3CC2)c1cc(F)cc(C(F)(F)F)c1 (centres unmarked) [YL074]
4,0.25 to 10,O=C(Nc1cc(O)c2c3c1C(c1cc(F)ccc1Cl)NC(=O)N3CC2)c1cc(F)cc(C(F)(F)F)c1 (centres unmarked) [YL076]
5,0.25 to 10,"O=C(Nc1cc(Br)c2c3c1C(c1cc(F)ccc1Cl)NC(=O)N3CC2)c1cc(F)cc(C(F)(F)F)c1 (single isomer, unassigned) [YL079-P2]"
6,0.25 to 10,N=C(N)Nc1cc(NC(=O)c2cc(F)cc(C(F)(F)F)c2)c2c3c1CCN3C(=O)NC2c1cc(F)ccc1Cl (centres unmarked) [YL088]

# The remaining lines, values behind:
row,Compound,IC50 [µM]
1,Nc1cc(-c2nc3cc(Cl)c(Cl)cc3[nH]2)c2c3c1CCN3C(=O)NC2c1cc(F)ccc1Cl (centres unmarked) [YL100],0.25 to 10
2,"Cn1nc2c(C#N)cc(NC(=O)c3cc(F)cc(C(F)(F)F)c3)c3c2c1C(=O)NC3c1cc(F)ccc1Cl (single isomer, unassigned) [YL102-P2]",> 10
3,Nc1cc(NC(=O)c2cc(F)cc(C(F)(F)F)c2)c2c3c1CCN3C(=O)NC2c1cc(Cl)ccc1Cl (centres unmarked) [YL094],0.25 to 10
4,Nc1cc(-c2nc3c(F)cc(C(F)(F)F)cc3[nH]2)c2c3c1CCN3C(=O)NC2c1cc(F)ccc1Cl (centres unmarked) [YL092],0.25 to 10
5,"N#Cc1c(-c2cc(NC(=O)c3cc(F)cc(C(F)(F)F)c3)c3c4c2CCN4C(=O)NC3c2cc(Cl)ccc2Cl)ccc2ncnn12 (single isomer, unassigned) [YL109-P2]",> 10
6,"Cn1nc2c(C#N)cc(NC(=O)c3cc(F)cc(C(F)(F)F)c3)c3c2c1C(=O)NC3c1cc(Cl)ccc1Cl (single isomer, unassigned) [YL111-P2]",> 10
7,Nc1cc(NC(=O)c2cc(F)cc(C(F)(F)F)c2)c2c3c1CCN3C(=O)NC2c1cc(Cl)ccc1C(F)(F)F (centres unmarked) [YL095],0.25 to 10
